Assay results published in patent publication US20110008471A1, “SYNERGISTIC ANTIPARASITIC COMPOSITIONS AND SCREENING METHODS” (TyraTech, Inc., priority 2007, published 2011).
One block for each molecule: values may come before it.

Legend:
H. nana = experiment: Anti-parasitic effect against H. nana in vivo in infected Swiss albino mice (egg count, cure rate); parameters: species or system Hymenolepsis nana; settings: for Egg Count (X ± SD), Pre Treatment (Base Line Data): infected mice, before 400 mg/kg oral daily for 5 days;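 as to all read-outs here: fecal egg counts per mouse in groups of 15, controls got soybean oil vehicle alone, cure judged 3 days after final dose by egg reduction and no adult intestinal worms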
Tyramine receptor (TyrR) [1] = target: T1, Tyramine receptor (TyrR) (Drosophila melanogaster, UniProt P22270); experiment: Intracellular cAMP level in cells expressing TyrR; format: cell-based
T1 construct: expressed in transfected cells; host or cells: model cells in culture
T1 sequence (P22270 27-601): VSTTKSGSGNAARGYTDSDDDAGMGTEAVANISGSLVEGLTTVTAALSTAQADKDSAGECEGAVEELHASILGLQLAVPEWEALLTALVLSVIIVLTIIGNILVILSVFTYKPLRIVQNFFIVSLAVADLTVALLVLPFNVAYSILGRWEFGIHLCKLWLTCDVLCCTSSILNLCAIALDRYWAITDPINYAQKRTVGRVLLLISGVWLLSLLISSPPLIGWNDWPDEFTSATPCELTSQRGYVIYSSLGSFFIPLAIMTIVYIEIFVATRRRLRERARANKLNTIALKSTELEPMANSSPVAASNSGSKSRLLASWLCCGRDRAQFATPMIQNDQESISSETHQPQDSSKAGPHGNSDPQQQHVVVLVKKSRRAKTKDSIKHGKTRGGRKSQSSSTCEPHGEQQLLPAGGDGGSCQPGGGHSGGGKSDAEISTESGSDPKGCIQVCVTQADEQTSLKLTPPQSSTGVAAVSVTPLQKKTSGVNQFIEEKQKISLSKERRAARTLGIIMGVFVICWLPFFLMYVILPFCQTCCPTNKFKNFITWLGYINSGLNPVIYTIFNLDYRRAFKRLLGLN
From the text: (§1) In the present Example, the genes encoding TyrR were incorporated into model cells in culture that mimic receptors in insects. The screening process uses the cultured cells in combination with [Ca^2+]i and [cAMP]i measuring assays to quantitatively determine effectiveness of test compound to treat parasitic infections. The screening process allows for identification of compounds that produce highly efficacious anti-parasitic compositions.
(§2) The assay steps are as follows. A cell expressing a tyramine receptor is contacted with a test compound and the receptor binding affinity of the test compound is measured. Cells which can be used include, for example, HEK293 cells, COS cells, Drosophila Schneider or S2 cells, SF9, SF21, T.ni cells, or the like. cAMP and/or Ca^2+ levels within the cell are also monitored and any changes from contacting the test compound with the cell are noted for each compound tested. […] A composition for use in treating a parasitic formulation can then be selected that includes a plurality of the identified compounds. In particular, the composition can comprise at least one compound identified as having a high receptor binding affinity for the tyramine receptor as well as an ability to effect change in cAMP and/or Ca^2+ levels within the cell and at least one additional compound identified as having a low receptor binding affinity for the tyramine receptor as well as an ability to effect change in cAMP and/or Ca^2+ levels within the cell.

Tyramine receptor (TyrR) [2] = target: T1, Tyramine receptor (TyrR); experiment: Intracellular Ca2+ level in cells expressing TyrR; format: cell-based
Tyramine receptor (TyrR) [3] = target: T1, Tyramine receptor (TyrR); experiment: Tyramine receptor binding affinity in cells expressing TyrR
Method: In some embodiments, a method of selecting a composition for use in treating a parasitic infection includes the following. A cell expressing a tyramine receptor is provided and is contacted with test compounds. The receptor binding affinity of the compounds is measured. At least one parameter selected from the following parameters is measured: intracellular cAMP level, and intracellular Ca^2+ level. A first compound for the composition is identified, which is capable of altering at least one of the parameters, and which has a high receptor binding affinity for the tyramine receptor; and a second compound for the composition is identified, which is capable of altering at least one of the parameters, and which has a low receptor binding affinity for the tyramine receptor. A composition is selected that includes the first and second compounds.
As used herein, the term “receptor binding affinity” refers to an interaction between a composition or component, e.g., compound, and a receptor binding site. The interaction between a composition or component, and the receptor binding site, can be identified as specific or non-specific. In some embodiments, the specificity of an interaction between a composition or component, and a TyrR binding site, can be determined in the following manner. A wild type fly (Drosophila melanogaster) and a mutant fly are provided, where the mutant fly lacks a TyrR. The wild type and mutant flies are exposed to a composition or component of interest. […] If the exposure negatively affects the wild type fly and the mutant fly, then the treatment with the composition or component of interest can be said to be non-specific for the TyrR.
A “high receptor binding affinity” can be a specific interaction between a composition or component, and the receptor binding site.
A “low receptor binding affinity” can be a non-specific interaction between a composition or component, and the receptor binding site. […] In some embodiments, a low receptor binding affinity is found when the effective concentration at which tyramine binding is inhibited by 50% (EC50) is greater than about 500 μM, 625 μM, 750 μM, 875 μM, 1000 μM, 1125 μM, or 1250 μM.
A receptor gene encoding the Tyramine receptor (TyrR) has been isolated from the American cockroach, fruit fly, mosquito, and other organisms. The present subject matter provides methods of utilizing the TyrR protein expressed in cells to screen for compounds useful for treating parasitic infections.
as §1, §2

[4] = 100 mg/kg oral daily for 5 days
[5] = Tested dose 100 mg/kg b.w. orally daily for 5 successive days
[6] = 400 mg/kg oral daily for 5 days
[7] = 3 Days after last dose, 400 mg/kg oral daily for 5 days

SMILES: Cc1ccc(C(C)C)c(O)c1 [Rx11, thymol]
- Cure rate (%) (H. nana; [4]): 33.3%
- Cure rate (%) (H. nana; [5]): 33.3%
- Affects Intracellular cAMP (Yes or No) (Tyramine receptor (TyrR) [1]): No
- Affects Intracellular Ca^2+ (Yes or No) (Tyramine receptor (TyrR) [2]): Yes
- Tyramine Receptor Binding Affinity (High or Low) (Tyramine receptor (TyrR) [3]): High

SMILES: C=CC(C)(O)CCC=C(C)C (stereo not shown) [linalool]
- Cure rate (%) (H. nana; [4]): 23.3%
- Cure rate (%) (H. nana; [5]): 23.3%
- Affects Intracellular cAMP (Yes or No) (Tyramine receptor (TyrR) [1]): No
- Affects Intracellular Ca^2+ (Yes or No) (Tyramine receptor (TyrR) [2]): Yes
- Tyramine Receptor Binding Affinity (High or Low) (Tyramine receptor (TyrR) [3]): High

SMILES: C/C=C/c1ccc(OC)cc1 [anethole]
- Affects Intracellular cAMP (Yes or No) (Tyramine receptor (TyrR) [1]): Yes
- Affects Intracellular Ca^2+ (Yes or No) (Tyramine receptor (TyrR) [2]): Yes
- Tyramine Receptor Binding Affinity (High or Low) (Tyramine receptor (TyrR) [3]): Low

- Affects Intracellular cAMP (Yes or No) (Tyramine receptor (TyrR) [1]): Yes
- Affects Intracellular Ca^2+ (Yes or No) (Tyramine receptor (TyrR) [2]): Yes
- Tyramine Receptor Binding Affinity (High or Low) (Tyramine receptor (TyrR) [3]): High
SMILES: CCC(C)(O)CCCC(C)C (stereo not shown) [tetrahydrolinalool]

SMILES: CC(C)=CCC/C(C)=C/CO [Rx5, geraniol]
- Egg Count (X ± SD), During Treatment 1st Day (H. nana; [6]): 14 ± 13.9
- Egg Count (X ± SD), During Treatment 2nd Day (H. nana; [6]): 1.4 ± 2.1
- Egg Count (X ± SD), During Treatment 3rd Day (H. nana; [6]): 4.1 ± 9.6
- Egg Count (X ± SD), During Treatment 4th Day (H. nana; [6]): 2.6 ± 7.4
- Egg Count (X ± SD), During Treatment 5th Day (H. nana; [6]): 2.3 ± 3.6
- Egg Count (X ± SD), Post treatment 2 Days after last dose (H. nana; [6]): 0.5 ± 0.9
- Cure rate (%) (H. nana; [7]): 66.6%
- Positiveity rate (%) (H. nana; [7]): 33.4%
- cure rate (H. nana; H. nana infected mice, 400 mg/kg body weight orally daily for 5 successive days, 3rd day after last dose): 66.6%
- Egg Count (X ± SD), Pre Treatment (Base Line Data) (H. nana): 3 ± 1
- Worms absent or dead in mice (H. nana; treated for 5 consecutive days, 400 mg/kg, post treatment dissection): 67%

SMILES: CC1=CCC2CC1C2(C)C (stereo not drawn) [α-pinene]
- Cure rate (%) (H. nana; [4]): 25.0%
- Cure rate (%) (H. nana; [5]): 25.0%
- Affects Intracellular cAMP (Yes or No) (Tyramine receptor (TyrR) [1]): No
- Affects Intracellular Ca^2+ (Yes or No) (Tyramine receptor (TyrR) [2]): No
- Tyramine Receptor Binding Affinity (High or Low) (Tyramine receptor (TyrR) [3]): Low

SMILES: COc1cc(C=O)ccc1O [vanillin]
- Affects Intracellular cAMP (Yes or No) (Tyramine receptor (TyrR) [1]): No

SMILES: CCC(=O)OCCc1ccccc1 [phenethyl proprionate]
- Affects Intracellular cAMP (Yes or No) (Tyramine receptor (TyrR) [1]): Yes
- Affects Intracellular Ca^2+ (Yes or No) (Tyramine receptor (TyrR) [2]): No
- Tyramine Receptor Binding Affinity (High or Low) (Tyramine receptor (TyrR) [3]): Low

SMILES: Cc1ccc(C(C)C)cc1 [Rx10, p-cymene]
- Cure rate (%) (H. nana; [4]): 13.3%
- Cure rate (%) (H. nana; [5]): 13.3%
- Affects Intracellular cAMP (Yes or No) (Tyramine receptor (TyrR) [1]): Yes
- Affects Intracellular Ca^2+ (Yes or No) (Tyramine receptor (TyrR) [2]): Yes
- Tyramine Receptor Binding Affinity (High or Low) (Tyramine receptor (TyrR) [3]): Low
- tyramine receptor binding affinity (Tyramine receptor (TyrR) [3]): low (a low receptor binding affinity is found when the equilibrium dissociation constant (Kd) is greater than about 100 nM)

SMILES: Cc1ccc(C(C)C)cc1O [Rx4, carvacrol]
- Egg Count (X ± SD), During Treatment 1st Day (H. nana; [6]): 5 ± 0.6
- Egg Count (X ± SD), During Treatment 2nd Day (H. nana; [6]): 2.2 ± 3.4
- Egg Count (X ± SD), During Treatment 3rd Day (H. nana; [6]): 1 ± 1.9
- Egg Count (X ± SD), During Treatment 4th Day (H. nana; [6]): 0.9 ± 1.2
- Egg Count (X ± SD), During Treatment 5th Day (H. nana; [6]): 2 ± 2
- Egg Count (X ± SD), Post treatment 2 Days after last dose (H. nana; [6]): 1.3 ± 1.1
- Cure rate (%) (H. nana; [7]): 28.6%
- Positiveity rate (%) (H. nana; [7]): 71.4%
- Egg Count (X ± SD), Pre Treatment (Base Line Data) (H. nana): 3 ± 1

SMILES: CC(C)=CCC/C(C)=C/CO [geraniol]
- Affects Intracellular cAMP (Yes or No) (Tyramine receptor (TyrR) [1]): Yes
- Affects Intracellular Ca^2+ (Yes or No) (Tyramine receptor (TyrR) [2]): Yes
- Tyramine Receptor Binding Affinity (High or Low) (Tyramine receptor (TyrR) [3]): High

- Affects Intracellular cAMP (Yes or No) (Tyramine receptor (TyrR) [1]): Yes
- Affects Intracellular Ca^2+ (Yes or No) (Tyramine receptor (TyrR) [2]): Yes
- Tyramine Receptor Binding Affinity (High or Low) (Tyramine receptor (TyrR) [3]): Low
SMILES: CC12CCC(CC1)C(C)(C)O2 [cineol]

SMILES: CCCCCCCCCCCCOS(=O)(=O)[O-].[Na+] [sodium lauryl sulfate]
- Affects Intracellular cAMP (Yes or No) (Tyramine receptor (TyrR) [1]): No
- Affects Intracellular Ca^2+ (Yes or No) (Tyramine receptor (TyrR) [2]): No
- Tyramine Receptor Binding Affinity (High or Low) (Tyramine receptor (TyrR) [3]): Low

SMILES: CC12CCC(CC1)C(C)(C)O2 [Rx6, cineol]
- Egg Count (X ± SD), During Treatment 1st Day (H. nana; [6]): 5 ± 9.5
- Egg Count (X ± SD), During Treatment 2nd Day (H. nana; [6]): 3.8 ± 14.3
- Egg Count (X ± SD), During Treatment 3rd Day (H. nana; [6]): 1 ± 1.2
- Egg Count (X ± SD), During Treatment 4th Day (H. nana; [6]): 1.8 ± 1.7
- Egg Count (X ± SD), During Treatment 5th Day (H. nana; [6]): 1.6 ± 1.5
- Egg Count (X ± SD), Post treatment 2 Days after last dose (H. nana; [6]): 2.5 ± 3.5
- Cure rate (%) (H. nana; [7]): 54.5%
- Positiveity rate (%) (H. nana; [7]): 45.5%
- Egg Count (X ± SD), Pre Treatment (Base Line Data) (H. nana): 3.1 ± 1.2

SMILES: OCC=Cc1ccccc1 [cinnamyl alcohol]
- Affects Intracellular cAMP (Yes or No) (Tyramine receptor (TyrR) [1]): No
- Affects Intracellular Ca^2+ (Yes or No) (Tyramine receptor (TyrR) [2]): Yes
- Tyramine Receptor Binding Affinity (High or Low) (Tyramine receptor (TyrR) [3]): Low

SMILES: C=CCc1ccc(O)c(OC)c1 [Eugenol]
- Affects Intracellular cAMP (Yes or No) (Tyramine receptor (TyrR) [1]): No
- Affects Intracellular Ca^2+ (Yes or No) (Tyramine receptor (TyrR) [2]): Yes
- Tyramine Receptor Binding Affinity (High or Low) (Tyramine receptor (TyrR) [3]): Low

- Affects Intracellular Ca^2+ (Yes or No) (Tyramine receptor (TyrR) [2]): Yes
SMILES: C=C(C)[C@H]1CC=C(C)CC1 [d-limonene]

SMILES: OCc1ccccc1 [benzyl alcohol]
- Affects Intracellular cAMP (Yes or No) (Tyramine receptor (TyrR) [1]): Yes
- Affects Intracellular Ca^2+ (Yes or No) (Tyramine receptor (TyrR) [2]): No
- Tyramine Receptor Binding Affinity (High or Low) (Tyramine receptor (TyrR) [3]): Low
